Reference: US20150232420A1, “TRANSGLUTAMINASE TG2 INHIBITORS, PHARMACEUTICAL COMPOSITIONS, AND METHODS OF USE THEREOF” (priority 2012, published 2015)

target: T1, human TG2 (Homo sapiens, UniProt P21980); assay: fluorescent screening assay for human TG2; type: biochemical; settings: Table 7; 20 nM TG2, 37° C.; read-out: IC50
T1 sequence (P21980 1-687): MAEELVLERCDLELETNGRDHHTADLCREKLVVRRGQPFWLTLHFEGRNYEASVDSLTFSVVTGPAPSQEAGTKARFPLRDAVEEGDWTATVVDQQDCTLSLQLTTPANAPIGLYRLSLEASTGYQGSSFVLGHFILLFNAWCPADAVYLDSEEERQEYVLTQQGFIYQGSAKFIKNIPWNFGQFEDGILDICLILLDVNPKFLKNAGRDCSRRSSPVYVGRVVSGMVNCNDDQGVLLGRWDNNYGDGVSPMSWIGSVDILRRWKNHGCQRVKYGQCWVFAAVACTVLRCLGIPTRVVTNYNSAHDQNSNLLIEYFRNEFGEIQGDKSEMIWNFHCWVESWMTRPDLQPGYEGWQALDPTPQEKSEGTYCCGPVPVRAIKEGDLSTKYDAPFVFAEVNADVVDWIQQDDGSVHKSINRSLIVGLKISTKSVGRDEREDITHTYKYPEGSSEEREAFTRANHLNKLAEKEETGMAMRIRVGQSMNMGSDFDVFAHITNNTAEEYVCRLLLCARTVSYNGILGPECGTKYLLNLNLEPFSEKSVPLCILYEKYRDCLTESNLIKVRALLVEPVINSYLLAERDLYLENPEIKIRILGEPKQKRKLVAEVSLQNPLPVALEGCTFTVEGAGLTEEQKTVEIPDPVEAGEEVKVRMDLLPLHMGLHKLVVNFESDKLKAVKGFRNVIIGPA
Protocol: The fluorescent screening assay for human TG2 was performed as described herein: Assay conditions were 20 nM TG2, 8 μM N,N-dimethylated Casein (NMC) and 16 μM K×D (used for all transglutaminase assays) in 25 mM Hepes, pH 7.4, 250 mM NaCl, 2 mM MgCl2, 0.5 mM CaCl2, 0.2 mM DTT, 0.05% Pluronic F-127 at 37° C. A time point was taken with a microplate reader (Safire or Ultra, Tecan; ex: 350 nm, em: 535 nm) every 3 minutes for up to 2 hours and the initial linear reaction progress was used to determine the reaction velocity as a measure for enzyme activity. Assay conditions were identical for human TG6 and similar for human TG1 and mouse TG2 apart from enzyme concentration (mTG2 at 5 nM; TG1 at 10 nM) and CaCl2 concentration (0.2 mM for mTG2; 0.05 mM for TG1). Factor XIIIa was activated using 0.1 μg/μl thrombin (Sigma) in 35 mM Tris pH 8.0 for 20 min at 30° C. and the transamidation reaction was performed with 20 nM Factor XIIIa in 50 mM Tris pH 8.0, 1.25 mM CaCl2, 0.05% Pluronic, 0.2 mM DTT. TG3 was activated with 0.02 μg/μl thrombin under the same conditions as Factor XIIIa and assay conditions were 10 nM TG3 in 50 mM Hepes, pH 8, 20 mM CaCl2, 0.2 mM DTT, 0.05% Pluronic F-127.

Row | IC50 [µM] | SMILES
1 | 1 to 100 | C=CC(=O)NCCCC[C@H](NC(=O)OCC1c2ccccc2-c2ccccc21)C(=O)O [(2S)-2-{[(9H-fluoren-9-ylmethoxy)carbonyl]amino}-6-(prop-2-enamido)hexanoic acid]
2 | 0.1 to 1 | C=CC(=O)NCCCC[C@H](NC(=O)OCc1ccccc1)C(=O)N1CCCC1 [benzyl N-[(2S)-1-oxo-6-(prop-2-enamido)-1-(pyrrolidin-1-yl)hexan-2-yl]carbamate]
3 | 0.1 to 1 | C=CC(=O)NCCCC[C@H](NC(=O)OCc1ccccc1)C(=O)N1CCOCC1 [benzyl N-[(2S)-1-(morpholin-4-yl)-1-oxo-6-(prop-2-enamido)hexan-2-yl]carbamate]
4 | 0.1 to 1 | C=CC(=O)NCCCC[C@H](NC(=O)OCc1ccccc1)C(=O)N1CCC(F)(F)CC1 [benzyl N-[(2S)-1-(4,4-difluoropiperidin-1-yl)-1-oxo-6-(prop-2-enamido)hexan-2-yl]carbamate]
5 | 0.1 to 1 | C=CC(=O)NCCCC[C@H](NC(=O)OCc1ccccc1)C(=O)N1CCN(c2ccc(C(F)(F)F)cn2)CC1 [benzyl N-[(2S)-1-oxo-6-(prop-2-enamido)-1-{4-[5-(trifluoromethyl)pyridin-2-yl]piperazin-1-yl}hexan-2-yl]carbamate]
6 | 0.1 to 1 | C=CC(=O)NCCCC[C@H](NC(=O)c1ccccc1)C(=O)N1CCN(c2cccc(C)n2)CC1 [N-[(5S)-6-[4-(6-methylpyridin-2-yl)piperazin-1-yl]-6-oxo-5-(phenylformamido)hexyl]prop-2-enamide]
7 | 1 to 100 | C=CC(=O)NCCCC[C@H](NC(=O)OCc1ccccc1)C(=O)NC1C2CC3CC(C2)CC1C3 (stereo partly drawn) [benzyl N-[(1S)-1-[(adamantan-2-yl)carbamoyl]-5-(prop-2-enamido)pentyl]carbamate]
8 | < 0.1 | C=CC(=O)NCCCC[C@H](NC(=O)OCc1ccccc1)C(=O)N1CCN(c2cccc(C)n2)CC1 [benzyl N-[(2S)-1-[4-(6-methylpyridin-2-yl)piperazin-1-yl]-1-oxo-6-(prop-2-enamido)hexan-2-yl]carbamate]
9 | 0.1 to 1 | C=CC(=O)NCCCC[C@H](NC(=O)OCc1ccccc1)C(=O)N1CCN(C(=O)OC(C)(C)C)CC1 [tert-butyl 4-[(2S)-2-{[(benzyloxy)carbonyl]amino}-6-(prop-2-enamido)hexanoyl]piperazine-1-carboxylate]
10 | 0.1 to 1 | C=CC(=O)NCCCC[C@H](NC(=O)OCc1ccccc1)C(=O)N1CCN(c2ncccc2C)CC1 [benzyl N-[(2S)-1-[4-(3-methylpyridin-2-yl)piperazin-1-yl]-1-oxo-6-(prop-2-enamido)hexan-2-yl]carbamate]
11 | 1 to 100 | C=CC(=O)NCCCC[C@H](NC(=O)OCc1ccc(CCCC)cc1)C(=O)O [(2S)-2-({[(4-butylphenyl)methoxy]carbonyl}amino)-6-(prop-2-enamido)hexanoic acid]
12 | < 0.1 | C=CC(=O)NCCCC[C@H](NC(=O)OCc1ccccc1)C(=O)N1CCN(c2cc(Cl)ccc2OC)CC1 [benzyl N-[(2S)-1-[4-(5-chloro-2-methoxyphenyl)piperazin-1-yl]-1-oxo-6-(prop-2-enamido)hexan-2-yl]carbamate]
13 | < 0.1 | C=CC(=O)NCCCC[C@H](NC(=O)OCc1ccccc1)C(=O)N1CCN(C(=O)C23CC4CC(CC(C4)C2)C3)CC1 [benzyl N-[(2S)-1-[4-(adamantane-1-carbonyl)piperazin-1-yl]-1-oxo-6-(prop-2-enamido)hexan-2-yl]carbamate]
14 | 1 to 100 | C=CC(=O)NCCCC[C@H](NC(=O)OCc1ccccc1Cl)C(=O)O [(2S)-2-({[(2-chlorophenyl)methoxy]carbonyl}amino)-6-(prop-2-enamido)hexanoic acid]
15 | 0.1 to 1 | C=CC(=O)NCCCC[C@H](NC(C)=O)C(=O)N1CCN(c2cccc(C)n2)CC1 [N-[(5S)-5-acetamido-6-[4-(6-methylpyridin-2-yl)piperazin-1-yl]-6-oxohexyl]prop-2-enamide]
16 | 0.1 to 1 | C=CC(=O)NCCCC[C@H](NC(=O)OCc1ccccc1)C(=O)N1CCN(C(=O)N2CCOCC2)CC1 [benzyl N-[(2S)-1-[4-(morpholine-4-carbonyl)piperazin-1-yl]-1-oxo-6-(prop-2-enamido)hexan-2-yl]carbamate]
17 | 0.1 to 1 | C=CC(=O)NCCCC[C@H](NC(=O)OCc1ccccc1)C(=O)N1CCN(C(=O)C2CC2)CC1 [benzyl N-[(2S)-1-(4-cyclopropanecarbonylpiperazin-1-yl)-1-oxo-6-(prop-2-enamido)hexan-2-yl]carbamate]

Row | IC50 [µM] | SMILES
18 | 0.1 to 1 | C=CC(=O)NCCCC[C@H](NC(=O)OCc1ccccc1)C(=O)N1Cc2ccccc2C1 [benzyl N-[(2S)-1-(2,3-dihydro-1H-isoindol-2-yl)-1-oxo-6-(prop-2-enamido)hexan-2-yl]carbamate]
19 | 0.1 to 1 | C=CC(=O)NCCCC[C@H](NC(=O)OCc1ccccc1)C(=O)N1CCN(c2nccs2)CC1 [benzyl N-[(2S)-1-oxo-6-(prop-2-enamido)-1-[4-(1,3-thiazol-2-yl)piperazin-1-yl]hexan-2-yl]carbamate]
20 | 1 to 100 | C=CC(=O)NCCCC[C@H](NC(=O)OCc1ccc(F)cc1)C(=O)O [(2S)-2-({[(4-fluorophenyl)methoxy]carbonyl}amino)-6-(prop-2-enamido)hexanoic acid]
21 | 1 to 100 | C=CC(=O)NCCCC[C@H](NC(=O)OCc1ccc([N+](=O)[O-])cc1)C(=O)O [(2S)-2-({[(4-nitrophenyl)methoxy]carbonyl}amino)-6-(prop-2-enamido)hexanoic acid]
22 | 1 to 100 | C=CC(=O)NCCCC[C@H](NC(=O)c1ccc2ccccc2c1)C(=O)N1CCN(c2cccc(C)n2)CC1 [N-[(5S)-6-[4-(6-methylpyridin-2-yl)piperazin-1-yl]-5-(naphthalen-2-ylformamido)-6-oxohexyl]prop-2-enamide]
23 | 1 to 100 | C=CC(=O)NCCCC[C@H](NC(=O)OCc1ccccc1)C(=O)N(C)C [benzyl N-[(1S)-1-(dimethylcarbamoyl)-5-(prop-2-enamido)pentyl]carbamate]
24 | 1 to 100 | C=CC(=O)NCCCC[C@H](NC(=O)OCc1ccccc1)C(=O)N(CC)CC [benzyl N-[(1S)-1-(diethylcarbamoyl)-5-(prop-2-enamido)pentyl]carbamate]
25 | 1 to 100 | C=CC(=O)NCCCC[C@H](NC(=O)OCc1ccc2ccccc2c1)C(=O)O [(2S)-2-{[(naphthalen-2-ylmethoxy)carbonyl]amino}-6-(prop-2-enamido)hexanoic acid]
26 | 1 to 100 | C=CC(=O)NCCCC[C@H](NC(=O)OC)C(=O)O [(2S)-2-[(methoxycarbonyl)amino]-6-(prop-2-enamido)hexanoic acid]
27 | 0.1 to 1 | C=CC(=O)NCCCC[C@H](NC(=O)OCc1ccccc1)C(=O)N1CCN(C(=O)C2CCOCC2)CC1 [benzyl N-[(2S)-1-[4-(oxane-4-carbonyl)piperazin-1-yl]-1-oxo-6-(prop-2-enamido)hexan-2-yl]carbamate]
28 | 1 to 100 | C=CC(=O)NCCCC[C@H](NC(=O)OCc1ccccc1)C(=O)N1CCC1 [benzyl N-[(2S)-1-(azetidin-1-yl)-1-oxo-6-(prop-2-enamido)hexan-2-yl]carbamate]
29 | 0.1 to 1 | C=CC(=O)NCCCC[C@H](NC(=O)OCc1ccccc1)C(=O)N1CCN(C)CC1 [benzyl N-[(2S)-1-(4-methylpiperazin-1-yl)-1-oxo-6-(prop-2-enamido)hexan-2-yl]carbamate]
30 | 1 to 100 | C=CC(=O)NCCCC[C@@H](CO)NC(=O)OCc1ccccc1 [benzyl N-[(2S)-1-hydroxy-6-(prop-2-enamido)hexan-2-yl]carbamate]
31 | 1 to 100 | C=CC(=O)NCCCC[C@@H](NC(=O)OCc1ccccc1)C(=O)O [(2R)-2-{[(benzyloxy)carbonyl]amino}-6-(prop-2-enamido)hexanoic acid]
32 | 0.1 to 1 | C=CC(=O)NCCCC[C@H](NC(=O)OCc1ccccc1)C(=O)N1CCN(c2ncccc2C(F)(F)F)CC1 [benzyl N-[(2S)-1-oxo-6-(prop-2-enamido)-1-{4-[3-(trifluoromethyl)pyridin-2-yl]piperazin-1-yl}hexan-2-yl]carbamate]
33 | 0.1 to 1 | C=CC(=O)NCCCC[C@H](NC(=O)OC(C)(C)C)C(=O)N1CCN(c2cccc(C)n2)CC1 [tert-butyl N-[(2S)-1-[4-(6-methylpyridin-2-yl)piperazin-1-yl]-1-oxo-6-(prop-2-enamido)hexan-2-yl]carbamate]
